pEC50, pIC50, pKi: −log10 of the molar value.
Columns and labels:
hERG = hERG (Homo sapiens (Human), UniProt Q12809); test: Patch clamp assay (hERG tail currents, whole-cell); format: cell-based; conditions: hERG transfected HEK 293 cells; for hERG % Remaining 10 μM: 10 μM compound; for hERG % Remaining 30 μM: 30 μM compound
Method: The 35 mm culture dishes upon which cells were seeded at a density allowing single cells to be recorded were placed on the dish holder of the microscope and continuously perfused (at approximately 1 mL/min) with the bath solution described in section 4.6. All solutions applied to cells including the pipette solution were maintained at room temperature (19° C. to 30° C.). After formation of a Gigaohm seal between the patch electrodes and individual hERG stably transfected HEK 293 cells (pipette resistance range: 2.0 MΩ2 to 7.0 MΩ; seal resistance range: >1GΩ) the cell membrane across the pipette tip was ruptured to assure electrical access to the cell interior (whole-cell patch-configuration). In case the quality of the seal was poor, the process of seal formation was repeated with a different cell and a new pipette. As soon as a stable seal could be established, hERG outward tail currents were measured upon depolarization of the cell membrane to +20 mV for 2s (activation of channels) from a holding potential of −80 mV and upon subsequent repolarization to −40 mV for 3 s. This voltage protocol (as shown below) was run at least 10 times at intervals of 10 s. If current density was judged to be too low for measurement, another cell was recorded.
During wash-in of the test item the voltage protocol indicated above was run continuously again at 10 s intervals until the steady-state level of block was reached.
The IC50 was determined by fitting the dose response curve with a 2-parameter logistic function (amax=100%).

Menin-MLL = Menin-MLL (Homo sapiens (Human), UniProt O00255); test: Determination of binding constants (Ki) to Menin-MLL (HTRF); conditions: HTRF, 0.25 nM H-FL-Menin, 3.2 nM FITC-MLL-4-43, 24 hr incubation; for pKi: read-out: Menin-MLL Ki HTRF Assay: Ki
Chain of Menin-MLL (O00255 whole entry): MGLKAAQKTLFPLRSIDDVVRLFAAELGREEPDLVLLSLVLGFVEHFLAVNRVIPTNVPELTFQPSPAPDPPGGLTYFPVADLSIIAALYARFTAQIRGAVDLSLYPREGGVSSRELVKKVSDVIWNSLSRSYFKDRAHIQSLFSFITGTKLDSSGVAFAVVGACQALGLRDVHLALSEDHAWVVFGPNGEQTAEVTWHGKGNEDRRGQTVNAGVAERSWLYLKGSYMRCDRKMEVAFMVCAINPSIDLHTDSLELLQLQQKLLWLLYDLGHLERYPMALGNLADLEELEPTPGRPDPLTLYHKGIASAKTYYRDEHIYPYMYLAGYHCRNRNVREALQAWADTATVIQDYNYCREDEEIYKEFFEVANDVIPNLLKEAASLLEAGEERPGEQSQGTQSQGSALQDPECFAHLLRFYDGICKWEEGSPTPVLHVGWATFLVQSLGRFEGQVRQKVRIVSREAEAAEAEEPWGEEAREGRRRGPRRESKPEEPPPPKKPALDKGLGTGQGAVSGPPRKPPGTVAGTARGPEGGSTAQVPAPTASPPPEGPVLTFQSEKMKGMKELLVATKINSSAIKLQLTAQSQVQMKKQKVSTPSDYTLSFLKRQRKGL

Chain of hERG (Q12809 whole entry): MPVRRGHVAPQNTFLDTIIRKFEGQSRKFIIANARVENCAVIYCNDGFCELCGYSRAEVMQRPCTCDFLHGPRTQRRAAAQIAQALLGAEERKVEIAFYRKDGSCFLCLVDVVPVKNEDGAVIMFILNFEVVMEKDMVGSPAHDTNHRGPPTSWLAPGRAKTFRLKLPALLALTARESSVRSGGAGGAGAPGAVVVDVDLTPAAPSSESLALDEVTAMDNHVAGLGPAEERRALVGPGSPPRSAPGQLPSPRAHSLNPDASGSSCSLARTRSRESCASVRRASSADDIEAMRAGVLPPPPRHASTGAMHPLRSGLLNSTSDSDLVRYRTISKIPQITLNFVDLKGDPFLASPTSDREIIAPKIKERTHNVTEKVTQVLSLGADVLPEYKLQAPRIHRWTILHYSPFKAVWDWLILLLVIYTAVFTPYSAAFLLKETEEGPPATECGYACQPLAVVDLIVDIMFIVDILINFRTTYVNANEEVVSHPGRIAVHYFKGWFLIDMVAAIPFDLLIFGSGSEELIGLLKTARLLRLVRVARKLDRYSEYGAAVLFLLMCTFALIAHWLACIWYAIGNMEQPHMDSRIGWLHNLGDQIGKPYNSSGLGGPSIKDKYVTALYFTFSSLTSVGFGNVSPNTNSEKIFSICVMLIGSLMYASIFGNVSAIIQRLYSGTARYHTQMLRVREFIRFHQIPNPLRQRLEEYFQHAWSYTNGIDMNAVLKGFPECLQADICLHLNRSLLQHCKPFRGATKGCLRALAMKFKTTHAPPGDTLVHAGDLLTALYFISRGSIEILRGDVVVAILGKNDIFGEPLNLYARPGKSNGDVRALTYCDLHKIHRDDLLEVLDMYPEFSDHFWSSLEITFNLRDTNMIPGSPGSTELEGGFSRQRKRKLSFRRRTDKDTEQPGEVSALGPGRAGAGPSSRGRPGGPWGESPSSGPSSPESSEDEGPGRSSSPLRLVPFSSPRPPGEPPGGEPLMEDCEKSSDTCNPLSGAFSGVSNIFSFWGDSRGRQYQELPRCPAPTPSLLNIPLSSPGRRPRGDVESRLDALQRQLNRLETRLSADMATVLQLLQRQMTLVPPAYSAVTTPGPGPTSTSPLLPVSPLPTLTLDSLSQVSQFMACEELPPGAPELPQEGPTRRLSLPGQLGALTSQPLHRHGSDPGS

| Compound | hERG % Remaining 10 μM (hERG) | hERG % Remaining 30 μM (hERG) | pEC50 (Menin-MLL) | pKi (Menin-MLL) | pIC50 (hERG) |
| --- | --- | --- | --- | --- | --- |
| CCN(C(=O)c1cc(F)ccc1Oc1cncnc1N1CC2(CCN(C[C@@H]3CC[C@@H](NS(=O)(=O)c4cccc(OC)c4)CO3)CC2)C1)C(C)C [Compound 66, N-Ethyl-5-fluoro-N-isopropyl-2-((4-(7-(((2S,5R)-5-((3-methoxyphenyl)sulfonamido)tetrahydro-2H-pyran-2-yl)methyl)-2,7-diazaspiro[3.5]nonan-2-yl)pyrimidin-5-yl)oxy)benzamide] | + (“+” means <33%) | + (“+” means <33%) | > 7.30 | > 9.00 |  |
| CCN(C(=O)c1cc(F)ccc1Oc1cncnc1N1CC2(CCN(C[C@@H]3CC[C@@H](NS(=O)(=O)c4cnn(C)c4)CO3)CC2)C1)C(C)C [Compound 68, N-Ethyl-5-fluoro-N-isopropyl-2-((4-(7-(((2S,5R)-5-((1-methyl-1H-pyrazole)-4-sulfonamido)tetrahydro-2H-pyran-2-yl)methyl)-2,7-diazaspiro[3.5]nonan-2-yl)pyrimidin-5-yl)oxy)benzamide] | +++ (“+++” means ≥66%) | +++ (“+++” means ≥66%) | > 7.30 | > 9.00 | ≤ 4.30 |
| CCN(C(=O)c1cc(F)ccc1Oc1cncnc1N1CC2(CCN(C[C@@H]3CC[C@@H](NS(=O)(=O)N4CCC4)CO3)CC2)C1)C(C)C [Compound 69, 2-((4-(7-(((2S,5R)-5-(Azetidine-1-sulfonamido)tetrahydro-2H-pyran-2-yl)methyl)-2,7-diazaspiro[3.5]nonan-2-yl)pyrimidin-5-yl)oxy)-N-ethyl-5-fluoro-N-isopropylbenzamide] | +++ (“+++” means ≥66%) | ++ (“++” means ≥33% and <66%) | > 7.30 | > 9.00 | 4.30 to 4.60 |
| CCN(C(=O)c1cc(F)ccc1Oc1cncnc1N1CC2(CCN(C[C@@H]3CC[C@@H](NS(=O)(=O)c4csc(C)n4)CO3)CC2)C1)C(C)C [Compound 71, N-Ethyl-5-fluoro-N-isopropyl-2-((4-(7-(((2S,5R)-5-((2-methylthiazole)-4-sulfonamido)tetrahydro-2H-pyran-2-yl)methyl)-2,7-diazaspiro[3.5]nonan-2-yl)pyrimidin-5-yl)oxy)benzamide] | +++ (“+++” means ≥66%) | ++ (“++” means ≥33% and <66%) | > 7.30 | > 9.00 |  |
| CCN(C(=O)c1cc(F)ccc1Oc1cncnc1N1CC2(CCN(C[C@@H]3CC[C@@H](NS(=O)(=O)c4cnc(C)o4)CO3)CC2)C1)C(C)C [Compound 72, N-Ethyl-5-fluoro-N-isopropyl-2-((4-(7-(((2S,5R)-5-((2-methyloxazole)-5-sulfonamido)tetrahydro-2H-pyran-2-yl)methyl)-2,7-diazaspiro[3.5]nonan-2-yl)pyrimidin-5-yl)oxy)benzamide] | ++ (“++” means ≥33% and <66%) | + (“+” means <33%) |  | > 9.00 |  |
| CCN(C(=O)c1cc(F)ccc1Oc1cncnc1N1CC2(CCN(C[C@@H]3CC[C@@H](NS(=O)(=O)c4c[nH]c(=O)cc4C)CO3)CC2)C1)C(C)C [Compound 75, N-Ethyl-5-fluoro-N-isopropyl-2-((4-(7-(((2S,5R)-5-((4-methyl-6-oxo-1,6-dihydropyridine)-3-sulfonamido)tetrahydro-2H-pyran-2-yl)methyl)-2,7-diazaspiro[3.5]nonan-2-yl)pyrimidin-5-yl)oxy)benzamide] |  | +++ (“+++” means ≥66%) |  | > 9.00 |  |
| CCN(C(=O)c1cc(F)ccc1Oc1cncnc1N1CC2(CCN(C[C@@H]3CC[C@@H](NS(=O)(=O)NC)CO3)CC2)C1)C(C)C [Compound 76, N-Ethyl-5-fluoro-N-isopropyl-2-((4-(7-(((2S,5R)-5-((N-methylsulfamoyl)amino)tetrahydro-2H-pyran-2-yl)methyl)-2,7-diazaspiro[3.5]nonan-2-yl)pyrimidin-5-yl)oxy)benzamide] | +++ (“+++” means ≥66%) | +++ (“+++” means ≥66%) | > 7.30 | > 9.00 |  |
| CC(C)N(C(=O)c1cc(F)ccc1Oc1cncnc1N1CC2(CCN(C[C@@H]3CC[C@@H](NS(=O)(=O)N4CCOCC4)CO3)CC2)C1)C(C)C [Compound 78, 5-Fluoro-N,N-diisopropyl-2-((4-(7-(((2S,5R)-5-(morpholine-4-sulfonamido)tetrahydro-2H-pyran-2-yl)methyl)-2,7-diazaspiro[3.5]nonan-2-yl)pyrimidin-5-yl)oxy)benzamide] | +++ (“+++” means ≥66%) | +++ (“+++” means ≥66%) | > 7.30 | > 9.00 |  |
| Cc1ncc(S(=O)(=O)N[C@@H]2CC[C@@H](CN3CCC4(CC3)CN(c3ncncc3Oc3ccc(F)cc3C(=O)N(C(C)C)C(C)C)C4)OC2)o1 [Compound 80, 5-Fluoro-N,N-diisopropyl-2-((4-(7-(((2S,5R)-5-((2-methyloxazole)-5-sulfonamido)tetrahydro-2H-pyran-2-yl)methyl)-2,7-diazaspiro[3.5]nonan-2-yl)pyrimidin-5-yl)oxy)benzamide] | ++ (“++” means ≥33% and <66%) | + (“+” means <33%) |  | > 9.00 |  |
| Cc1nc(S(=O)(=O)N[C@@H]2CC[C@@H](CN3CCC4(CC3)CN(c3ncncc3Oc3ccc(F)cc3C(=O)N(C(C)C)C(C)C)C4)OC2)cs1 [Compound 81, 5-Fluoro-N,N-diisopropyl-2-((4-(7-(((2S,5R)-5-((2-methylthiazole)-4-sulfonamido)tetrahydro-2H-pyran-2-yl)methyl)-2,7-diazaspiro[3.5]nonan-2-yl)pyrimidin-5-yl)oxy)benzamide] | ++ (“++” means ≥33% and <66%) | ++ (“++” means ≥33% and <66%) |  | > 9.00 |  |
| CC(C)N(C(=O)c1cc(F)ccc1Oc1cncnc1N1CC2(CCN(C[C@@H]3CC[C@@H](NS(=O)(=O)c4cnn(C)c4Cl)CO3)CC2)C1)C(C)C [Compound 82, 2-((4-(7-(((2S,5R)-5-((5-Chloro-1-methyl-1H-pyrazole)-4-sulfonamido)tetrahydro-2H-pyran-2-yl)methyl)-2,7-diazaspiro[3.5]nonan-2-yl)pyrimidin-5-yl)oxy)-5-fluoro-N,N-diisopropylbenzamide] | ++ (“++” means ≥33% and <66%) | + (“+” means <33%) |  | > 9.00 |  |
| CC(C)N(C(=O)c1cc(F)ccc1Oc1cncnc1N1CC2(CCN(C[C@@H]3CC[C@@H](NS(=O)(=O)c4cnn(C5CC5)c4)CO3)CC2)C1)C(C)C [Compound 83, 2-((4-(7-(((2S,5R)-5-((1-Cyclopropyl-1H-pyrazole)-4-sulfonamido)tetrahydro-2H-pyran-2-yl)methyl)-2,7-diazaspiro[3.5]nonan-2-yl)pyrimidin-5-yl)oxy)-5-fluoro-N,N-diisopropylbenzamide] | +++ (“+++” means ≥66%) | ++ (“++” means ≥33% and <66%) |  | > 9.00 |  |
| Cc1ncc(S(=O)(=O)N[C@@H]2CC[C@@H](CN3CCC4(CC3)CN(c3ncncc3Oc3ccc(F)cc3C(=O)N(C(C)C)C(C)C)C4)OC2)s1 [Compound 84, 5-Fluoro-N,N-diisopropyl-2-((4-(7-(((2S,5R)-5-((2-methylthiazole)-5-sulfonamido)tetrahydro-2H-pyran-2-yl)methyl)-2,7-diazaspiro[3.5]nonan-2-yl)pyrimidin-5-yl)oxy)benzamide] | ++ (“++” means ≥33% and <66%) | + (“+” means <33%) |  | > 9.00 |  |
| CC(C)N(C(=O)c1cc(F)ccc1Oc1cncnc1N1CC2(CCN(C[C@@H]3CC[C@@H](NS(=O)(=O)c4cnn(C(F)F)c4)CO3)CC2)C1)C(C)C [Compound 85, 2-((4-(7-(((2S,5R)-5-((1-(Difluoromethyl)-1H-pyrazole)-4-sulfonamido)tetrahydro-2H-pyran-2-yl)methyl)-2,7-diazaspiro[3.5]nonan-2-yl)pyrimidin-5-yl)oxy)-5-fluoro-N,N-diisopropylbenzamide] | ++ (“++” means ≥33% and <66%) | + (“+” means <33%) |  | > 9.00 |  |
| CC(C)N(C(=O)c1cc(F)ccc1Oc1cncnc1N1CC2(CCN(C[C@@H]3CC[C@@H](NS(=O)(=O)c4cnn(C)c4)CO3)CC2)C1)C(C)C [Compound 86, 5-Fluoro-N,N-diisopropyl-2-((4-(7-(((2S,5R)-5-((1-methyl-1H-pyrazole)-4-sulfonamido)tetrahydro-2H-pyran-2-yl)methyl)-2,7-diazaspiro[3.5]nonan-2-yl)pyrimidin-5-yl)oxy)benzamide] | +++ (“+++” means ≥66%) | +++ (“+++” means ≥66%) |  | > 9.00 | ≤ 4.30 |
| CC(C)N(C(=O)c1cc(F)ccc1Oc1cncnc1N1CC2(CCN(C[C@@H]3CC[C@@H](NS(=O)(=O)c4ccn(C)n4)CO3)CC2)C1)C(C)C [Compound 87, 5-Fluoro-N,N-diisopropyl-2-((4-(7-(((2S,5R)-5-((1-methyl-1H-pyrazole)-3-sulfonamido)tetrahydro-2H-pyran-2-yl)methyl)-2,7-diazaspiro[3.5]nonan-2-yl)pyrimidin-5-yl)oxy)benzamide] |  | +++ (“+++” means ≥66%) |  | > 9.00 |  |
| CC(C)N(C(=O)c1cc(F)ccc1Oc1cncnc1N1CC2(CCN(C[C@@H]3CC[C@@H](NS(=O)(=O)N4CCC4)CO3)CC2)C1)C(C)C [Compound 88, 2-((4-(7-(((2S,5R)-5-(Azetidine-1-sulfonamido)tetrahydro-2H-pyran-2-yl)methyl)-2,7-diazaspiro[3.5]nonan-2-yl)pyrimidin-5-yl)oxy)-5-fluoro-N,N-diisopropylbenzamide] |  | +++ (“+++” means ≥66%) |  | > 9.00 |  |

Source: US11919901B2 (Syndax Pharmaceuticals, Inc., priority 2021, dated 2024)
